Columns and labels:
A375 = test: Anti-proliferative activity, CellTiter-96 assay, A375; format: cell-based; details: Homo sapiens, A-375, A375 cells, 72 hours incubation
Summary of the method: (§1)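 Cells in DMEM with 10% FCS at 37° C., 5% CO2, plated at 2000 cells/well for 24 h, then exposed to graded compound concentrations for 72 h. CellTiter-96 Aqueous One reagent added for 4.0 h; viability read as absorbance at 490 nm.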

A549 = test: Anti-proliferative activity, CellTiter-96 assay, A549; format: cell-based; details: Homo sapiens, A549 cells, 72 hours incubation
Summary of the method: as §1

B-Raf (V600E) = B-Raf (V600E) (Homo sapiens (Human), UniProt P15056, V600E); test: Raf kinase assay (B-Raf (V600E)), [33P] incorporation into MEK1(K97R); format: biochemical
B-Raf (V600E), sequence (P15056 whole entry V600E): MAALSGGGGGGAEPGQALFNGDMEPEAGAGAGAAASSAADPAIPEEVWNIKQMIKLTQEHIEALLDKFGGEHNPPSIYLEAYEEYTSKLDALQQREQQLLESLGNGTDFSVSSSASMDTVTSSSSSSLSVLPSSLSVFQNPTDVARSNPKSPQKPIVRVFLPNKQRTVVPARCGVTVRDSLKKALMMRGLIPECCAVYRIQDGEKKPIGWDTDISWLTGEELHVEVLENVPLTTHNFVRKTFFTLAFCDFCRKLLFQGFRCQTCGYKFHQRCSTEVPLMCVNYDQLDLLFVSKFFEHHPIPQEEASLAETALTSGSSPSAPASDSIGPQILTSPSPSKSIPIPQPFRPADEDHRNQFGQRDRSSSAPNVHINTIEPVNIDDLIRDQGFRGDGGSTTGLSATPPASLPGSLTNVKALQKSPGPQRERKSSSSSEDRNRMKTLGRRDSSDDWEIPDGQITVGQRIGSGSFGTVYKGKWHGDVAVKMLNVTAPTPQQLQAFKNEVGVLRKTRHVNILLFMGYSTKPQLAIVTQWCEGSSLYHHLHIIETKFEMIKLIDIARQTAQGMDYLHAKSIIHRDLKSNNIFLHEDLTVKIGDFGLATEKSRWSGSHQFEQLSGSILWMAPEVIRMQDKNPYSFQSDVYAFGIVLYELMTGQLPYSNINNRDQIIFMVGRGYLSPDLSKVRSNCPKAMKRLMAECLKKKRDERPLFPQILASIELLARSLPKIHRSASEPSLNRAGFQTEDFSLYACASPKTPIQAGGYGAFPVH
Summary of the method: (§2)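 [33P] transfer to kinase-dead MEK1(K97R) substrate (500 ng) measured after 30 min at 30 °C in Tris pH 7.5 buffer containing 8 μM ATP. Enzyme inputs were 2 ng for C-Raf and 5 ng for B-Raf and B-Raf V600E. Duplicate 3-fold serial dilutions gave the half-maximal inhibitory concentration.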

FLT3 kinase = FLT3 kinase (Homo sapiens (Human), UniProt P36888); test: FLT3 kinase assay; format: biochemical
FLT3 kinase, sequence (P36888 610-943): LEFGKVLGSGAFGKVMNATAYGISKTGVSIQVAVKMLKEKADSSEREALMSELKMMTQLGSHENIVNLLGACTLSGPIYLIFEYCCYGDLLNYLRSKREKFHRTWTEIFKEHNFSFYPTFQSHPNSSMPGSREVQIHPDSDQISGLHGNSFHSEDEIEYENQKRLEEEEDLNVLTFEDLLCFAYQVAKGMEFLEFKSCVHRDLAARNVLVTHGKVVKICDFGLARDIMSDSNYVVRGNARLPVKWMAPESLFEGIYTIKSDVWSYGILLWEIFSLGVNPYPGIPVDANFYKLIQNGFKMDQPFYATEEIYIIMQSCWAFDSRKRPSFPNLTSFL
Experimental: Inhibition of FLT3 kinase activity by compounds disclosed herein was quantified by measuring the amount of [^33P] incorporated into the substrate in the presence of a test compound. Briefly, a reaction mixture of 25 μL final volume containing 5 ng of Flt3 kinase (obtained by purifying recombinant N-terminal 6×His-tagged Flt3 kinase domain construct expressed from baculovirus), 5 μg of the substrate (Poly(Glu-Tyr, 4:1, Sigma)), kinase reaction buffer (20 mM MOPS pH 7.0, 1 mM EDTA, 5% glycerol, 0.01% Brij-35, 0.1% β-mercaptoethanol, 1 mg/mL BSA, 100 μM ATP, 0.1 μCi per well [^33P]-γ-ATP (2,500-3,000 Ci/mmol)), and a test compound (100 nM, diluted with 4% DMSO) or DMSO (as the control) was incubated at 30° C. for 30 minutes. The reaction was stopped by adding 5 μL of 3% phosphoric acid solution. The resultant reaction solution was then harvested onto a filter plate (UniFilter-96 GF/B, PerkinElmer), washed 20 times for 5 min with d.d. H2O, and followed by the addition of 30 μL of MicroScint™-20 Cocktail (PerkinElmer). The plate was then sealed and counted using a TopCount™ scintillation detector (PerkinElmer). IC50 value is defined as the concentration of the test compound which achieves a half-maximal inhibition of the kinase activity.

COLO205 = test: Anti-proliferative activity, CellTiter-96 assay, COLO205; format: cell-based; details: Homo sapiens, COLO 205, COLO205 cells, 72 hours incubation
Summary of the method: as §1

VEGFR2 kinase = VEGFR2 kinase (Homo sapiens (Human), UniProt P35968); test: VEGFR2 kinase assay; format: biochemical
VEGFR2 kinase, sequence (P35968 834-1162): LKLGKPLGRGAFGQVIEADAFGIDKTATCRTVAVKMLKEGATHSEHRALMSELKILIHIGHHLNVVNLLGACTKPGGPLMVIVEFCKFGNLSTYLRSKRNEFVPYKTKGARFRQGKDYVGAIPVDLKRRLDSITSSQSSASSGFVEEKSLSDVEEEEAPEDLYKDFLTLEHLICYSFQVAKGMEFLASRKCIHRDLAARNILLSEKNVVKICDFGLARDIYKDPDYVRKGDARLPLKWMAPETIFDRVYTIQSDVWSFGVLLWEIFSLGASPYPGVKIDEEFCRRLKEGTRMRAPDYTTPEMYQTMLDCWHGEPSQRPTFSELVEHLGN
Experimental: Inhibition of VEGFR2 kinase activity by compounds disclosed herein was quantified by measuring the amount of [^33P] incorporated into the substrate in the presence of a test compound. […] The reaction was then stopped by adding 5 μL of 3% phosphoric acid solution. The resultant solution was transferred to and harvested by a filter plate (UniFilter-96 GF/B, PerkinElmer). The filter plate was then washed 20 times with d.d. H2O for 5 min followed by the addition of 30 μL of MicroScint™-20 Cocktail (PerkinElmer). After the plate was sealed, the retained radioactivity on the filter was counted using a TopCount™ scintillation detector (PerkinElmer). […]

FGFR1 kinase = FGFR1 kinase (Homo sapiens (Human), UniProt P11362); test: FGFR1 kinase assay; format: biochemical
FGFR1 kinase, sequence (P11362 478-767): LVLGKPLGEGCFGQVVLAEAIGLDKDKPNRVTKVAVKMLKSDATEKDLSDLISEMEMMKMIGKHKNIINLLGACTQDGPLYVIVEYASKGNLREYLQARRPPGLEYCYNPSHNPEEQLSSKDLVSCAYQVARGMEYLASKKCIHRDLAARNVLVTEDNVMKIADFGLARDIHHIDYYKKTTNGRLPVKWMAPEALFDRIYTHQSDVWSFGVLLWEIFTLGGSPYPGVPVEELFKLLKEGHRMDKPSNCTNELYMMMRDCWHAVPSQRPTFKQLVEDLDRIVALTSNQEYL
Experimental: Inhibition of FGFR1 kinase activity by compounds disclosed herein was quantified by measuring the amount of [^33P] incorporated into the substrate in the presence of a test compound. Briefly, a reaction mixture of 25 μL final volume containing 1 ng of FGFR1 kinase (FGFR1 kinase domain alone, Millipore), 5 μg of the substrate [poly(Glu-Tyr), Sigma], kinase reaction buffer (14 mM MOPS pH 7.0, 0.2 mM EDTA, 0.5% glycerol, 0.001% Brij-35, 0.01% β-mercaptoethanol, 0.1 mg/ml BSA, 100 μM ATP, 0.1 μCi per well [^33P]-γ-ATP (2,500-3,000 Ci/mmol)), and a test compound (100 nM, diluted with 4% DMSO) or DMSO (as the control) was incubated at 30° C. for 60 minutes. The reaction was stopped by adding 5 μL of 3% phosphoric acid solution. The resultant reaction solution was then harvested onto a filter plate (UniFilter-96 GF/B, PerkinElmer), washed 20 times for 5 min with d.d. H2O, and followed by the addition of 30 μL of MicroScint™-20 Cocktail (PerkinElmer). The radioactivity retained on the filter membrane was measured by TopCount™ scintillation detector (PerkinElmer). The results were analyzed by using linear regression software (GraphPad Prism™ 4; GraphPad Software Inc.). IC50 value is defined as the concentration of the test compound which achieves a half-maximal inhibition of the kinase activity.

C-Raf = C-Raf (Homo sapiens (Human), UniProt P04049); test: Raf kinase assay (C-Raf), [33P] incorporation into MEK1(K97R); format: biochemical
C-Raf, sequence (P04049 whole entry): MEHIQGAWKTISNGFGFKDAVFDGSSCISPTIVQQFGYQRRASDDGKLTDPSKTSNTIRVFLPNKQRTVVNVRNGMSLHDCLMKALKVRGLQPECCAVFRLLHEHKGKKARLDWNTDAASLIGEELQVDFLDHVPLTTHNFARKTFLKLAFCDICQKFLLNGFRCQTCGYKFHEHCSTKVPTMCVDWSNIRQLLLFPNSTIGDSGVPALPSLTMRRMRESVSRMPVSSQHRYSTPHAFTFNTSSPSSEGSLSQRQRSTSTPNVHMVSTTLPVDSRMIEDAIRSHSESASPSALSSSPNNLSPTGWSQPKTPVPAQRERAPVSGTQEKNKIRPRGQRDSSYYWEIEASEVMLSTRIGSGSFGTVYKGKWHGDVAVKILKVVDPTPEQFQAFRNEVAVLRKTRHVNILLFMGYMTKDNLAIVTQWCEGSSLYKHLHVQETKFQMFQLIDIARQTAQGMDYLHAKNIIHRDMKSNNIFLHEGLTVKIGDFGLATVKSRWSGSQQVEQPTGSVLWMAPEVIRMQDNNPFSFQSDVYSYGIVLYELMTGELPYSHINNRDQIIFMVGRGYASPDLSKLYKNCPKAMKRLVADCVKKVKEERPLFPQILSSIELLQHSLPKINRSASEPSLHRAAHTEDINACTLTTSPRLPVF
Summary of the method: as §2

MDA-MB-231 = test: Anti-proliferative activity, CellTiter-96 assay, MDA-MB-231; format: cell-based; details: Homo sapiens, MDA-MB-231 cells, 72 hours incubation
Summary of the method: as §1

| IC50 (A375) [nM] | IC50 (A549) [nM] | IC50 (B-Raf (V600E)) [nM] | IC50 (FLT3 kinase) [nM] | IC50 (COLO205) [nM] | IC50 (VEGFR2 kinase) [nM] | IC50 (FGFR1 kinase) [nM] | IC50 (C-Raf) [nM] | IC50 (MDA-MB-231) [nM] | Structure (SMILES) |
| --- | --- | --- | --- | --- | --- | --- | --- | --- | --- |
| 500 ± 100 | 500 ± 200 | 23.2 | 137 | 3200 ± 300 | 23.5 | 131 | 170 | 800 ± 300 | COc1cc(-c2ccc3ncnc(Nc4cc(O)ccc4F)c3c2)ccc1O [Compound 58, 4-(4-(2-fluoro-5-hydroxyphenylamino)quinazolin-6-yl)-2-methoxyphenol] |
| 900 ± 200 | 1100 ± 100 | 37.4 | 271 | 6700 ± 100 | 139 | 413 | 255 | 1500 ± 100 | COc1cc(-c2ccc3ncnc(Nc4cccc(O)c4)c3c2)ccc1O [Compound 8, 4-(4-(3-hydroxyphenylamino)quinazolin-6-yl)-2-methoxyphenol] |

— US8785459B2, “Quinazoline compounds as kinase inhibitors” (Development Center for Biotechnology, priority 2011, dated 2014)
